This note sets out measurements from US10220025B1, “Self-emulsifying formulation of CARP-1 functional mimetics” (Florida A&M University, priority 2016, dated 2019).

Data set [1] deals with MDA-MB-468 TNBC cells, wild type. Put plainly: MTT viability assay, parental MDA-MB-468. In kind it is cell-based, human. On the technique in general: Formazan colour is commonly taken as a measure of viable cells.
Protocol: In vitro inhibition of cell growth was assessed by MTT (3-[4, 5-dimethyltiazol-2-yl]-2.5-diphenyl tetrazolium bromide) reagent. Cells (5×10^3) were seeded in a 96-well culture plate and subsequently treated with respective agents at different concentrations as mentioned. Control cells were treated with 0.1% DMSO in culture medium. After treatment, the cells were incubated with 1 mg/ml of MTT reagent at 37° C. for 2-4 hours and then MTT was removed and 50 μL of DMSO was added, followed by colorimetric analysis using a multi-label plate reader at 560 nm (Victor3; PerkinElmer, Wellesley, Mass., USA).
Data set [2] relates to Adriamycin-resistant (ADR-R) MDA-MB-468 sublines. Put plainly: MTT viability assay, ADR-resistant MDA-MB-468 sublines. The format is cell-based, human. Particulars: ADR-resistant MDA-MB-468 subline 1; FIG. 5E. The procedure: Human TNBC MDA-MB-468 and MDA-MB-231, and mouse TNBC 4T1 cells were cultured in the chronic presence (>10 months) of Doxorubicin. The parental, wild-type cells were initially treated with 200 nM Doxorubicin for 2-3 weeks, followed by escalation to 400 nM, 1 μM, and 2 μM doses over a period of 3-4 weeks for each dose till resistance developed and the cells became well adapted to growth in […] of Doxorubicin for their routine culture. In the case of Cisplatin however, the human TNBC MDA-MB-468 and MDA-MB-231 were initially cultured in continuous presence of 1 μM Cisplatin for 3-4 weeks, and the dose was escalated to 1.5 μM and 3 μM over periods of 3-4 weeks for each dose till resistance developed and cells became adapted to routine culture in 3 μM dose. Subsequent, routine maintenance of the resistant cells in the presence of the respective drug was continued and multiple, resistant sublines for each of the TNBC cells were isolated and characterized for their growth inhibitory (GI)50 dose of respective therapeutic by the MTT-based viability assays as below.

For data set [3], the system named is parental and drug-resistant TNBC and SKBR-3 cells. As to the kind of experiment: scratch/wound healing cell migration assay. The format is cell-based. Particulars: FIGS. 11B, 11C, 12A, 12B, 13A, 13B. As for the experimental part: The TNBC cells migration in the absence or presence of CFMs was measured by the “scratch/wound healing” assay. Cells were seeded in a 6-well plate (˜10,000 cells/well), and when attached, a scratch was created in the cell monolayer using sterile pipette tip. The cells were then allowed to continue growing in the absence (Control) or presence of noted dose of each of the agents for indicated time periods. The cells were photographed at the beginning and at regular intervals during the treatment period, and the images from control cells were compared with the treated cells to determine the migration of the cells essentially as described before [Liang C C, Park A Y, Guan J L In vitro scratch assay: a convenient and inexpensive method for analysis of cell migration in vitro. Nat Protoc. 2007; 2:329-33]. The photomicrographs of the cells were recorded under different magnifications utilizing Zeiss microscope with attached 35 mm camera.

For data set [4], the system named is mammospheres of parental and drug-resistant MDA-MB-468 TNBC cells. Put plainly: three-dimensional mammosphere assay. The format is cell-based, human. The procedure: The TNBC cells were obtained from tumors derived from parental and drug-resistant cells or from a two-dimensional culture plate with ˜70-80% confluence. The cells were washed twice in 1×PBS and trypsinized following established protocols. The cells were pelleted at 200×g at room temperature, and re-suspended in 5 ml of mammosphere media (DMEM/F12 supplemented with 2 mM L-glutamine, 100 U/ml penicillin, […] streptomycin, 1×B27 supplement, 20 ng/ml recombinant human epidermal growth factor (EGF; Sigma), 10 ng/ml recombinant human basic fibroblast growth factor (bFGF; R&D Systems). The cell suspension of ˜5000 viable cells per ml was then seeded in an ultra-low adherent 60 mm plate and incubated at 37° C. and 5% CO2 for two weeks without disturbing the plates. After the mammospheres formed, fresh media with or without 10 μM CFM-4.16 was added and the cells incubated for additional 24 h at 37° C. and 5% CO2. The mammospheres in the untreated and treated plates were photographed, and the cells were then dissociated to determine their viabilities by the MTT assay as described [Lombardo Y, de Giorgio A, Coombes C R, Stebbing J, Castellano L. Mammosphere Formation Assay from Human Breast Cancer Tissues and Cell Lines. J. Vis. Exp. 2015; 97: e52671. doi:10.3791/52671].

`O=C1N(Cc2ccccc2Cl)c2ccccc2C12NN=C(c1cccc(Cl)c1)S2` (stereo not drawn) [CFM-4.16]: in data set [1] (10 μM dose), the “inhibition / loss of cell viability” value is recorded as 80-100%. Moreover, the “inhibition of viability compared with CFM-4” value in data set [1] (20 μM, 24 h, FIG. 3A) is reported as “greater inhibition of viability”. For the same molecule, the “effect of siRNA-mediated depletion of CARP-1 on growth inhibition by the compound” value in data set [2] was “interfered with growth inhibition”. Moreover, the “growth of cells in the areas of wound caused by a scratch” value in data set [3] is recorded as “prevented”. Further, in data set [4] (10 μM, 24 h, FIG. 15A), the mammosphere integrity result is given as “disintegration of mammospheres”. In addition, the “viability of mammospheres vs DMSO-treated controls” value in data set [4] (parental and ADR-resistant cells, FIG. 15B) is given as “robust decline in viability”.
